{"source": "the Kinase Knowledgebase extract (Sharma et al. 2016)", "molecular_target": "EGFR (human) (UniProt P00533)", "sequence (P00533 whole entry, looked up)": "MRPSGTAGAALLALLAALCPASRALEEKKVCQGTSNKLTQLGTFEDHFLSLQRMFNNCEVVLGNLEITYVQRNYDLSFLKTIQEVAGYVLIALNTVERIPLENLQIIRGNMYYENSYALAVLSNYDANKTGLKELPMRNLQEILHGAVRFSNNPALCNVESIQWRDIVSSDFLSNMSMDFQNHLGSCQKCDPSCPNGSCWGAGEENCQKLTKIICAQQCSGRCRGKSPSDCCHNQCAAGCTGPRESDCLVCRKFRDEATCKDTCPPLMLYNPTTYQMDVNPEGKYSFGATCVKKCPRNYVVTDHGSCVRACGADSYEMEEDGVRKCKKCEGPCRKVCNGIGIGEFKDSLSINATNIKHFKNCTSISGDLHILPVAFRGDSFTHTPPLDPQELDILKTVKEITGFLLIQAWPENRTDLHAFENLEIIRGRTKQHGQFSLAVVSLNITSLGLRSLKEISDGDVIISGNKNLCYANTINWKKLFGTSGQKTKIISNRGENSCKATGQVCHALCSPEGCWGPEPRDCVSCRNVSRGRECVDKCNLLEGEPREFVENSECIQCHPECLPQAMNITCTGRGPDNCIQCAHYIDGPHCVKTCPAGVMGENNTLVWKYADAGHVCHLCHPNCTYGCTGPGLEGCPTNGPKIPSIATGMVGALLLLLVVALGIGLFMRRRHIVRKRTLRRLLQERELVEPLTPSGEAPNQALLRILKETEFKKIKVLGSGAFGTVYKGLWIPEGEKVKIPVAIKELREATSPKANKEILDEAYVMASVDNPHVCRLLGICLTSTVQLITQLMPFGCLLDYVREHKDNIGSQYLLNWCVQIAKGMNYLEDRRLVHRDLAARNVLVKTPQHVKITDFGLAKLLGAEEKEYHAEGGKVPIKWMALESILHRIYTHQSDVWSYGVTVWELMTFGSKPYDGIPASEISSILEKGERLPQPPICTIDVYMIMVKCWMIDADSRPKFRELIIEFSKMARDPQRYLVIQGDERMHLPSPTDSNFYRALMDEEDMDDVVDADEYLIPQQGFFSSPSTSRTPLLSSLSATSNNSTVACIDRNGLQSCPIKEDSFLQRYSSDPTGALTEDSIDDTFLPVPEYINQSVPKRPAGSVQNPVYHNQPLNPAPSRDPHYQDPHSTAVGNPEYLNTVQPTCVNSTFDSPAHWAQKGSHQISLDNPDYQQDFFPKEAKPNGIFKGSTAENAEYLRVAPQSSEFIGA", "details": "huvec"}
{"smiles": "COc1cc2c(Nc3c(F)cc(Br)cc3F)ncnc2cc1OCC1CCN(C)CC1", "values": [{"measurement": "IC50", "result": 400, "unit": "nM"}]}
{"smiles": "COc1cc2c(Nc3cc(O)c(Cl)cc3F)ncnc2cc1OCC1CCN(C)CC1", "values": [{"measurement": "IC50", "result": 70, "unit": "nM"}]}
{"smiles": "COc1cc2c(Nc3ccc(Br)cc3F)ncnc2cc1OCCCN1CCN(C)CC1", "values": [{"measurement": "IC50", "result": 90, "unit": "nM"}]}
{"smiles": "COc1cc2c(Nc3ccc(C#N)cc3F)ncnc2cc1OC/C=C/CN1CCCC1", "values": [{"measurement": "IC50", "result": 1400, "unit": "nM"}]}
{"smiles": "COc1cc2c(Nc3ccc(C)cc3F)ncnc2cc1OCC1CCNCC1", "values": [{"measurement": "IC50", "result": 450, "unit": "nM"}]}
{"smiles": "COc1cc2c(Nc3ccc(Br)cc3F)ncnc2cc1OC/C=C/CN1CCCC1", "values": [{"measurement": "IC50", "result": 90, "unit": "nM"}]}
{"smiles": "COc1cc2c(Nc3cc(O)c(C)cc3F)ncnc2cc1OCC1CCN(C)CC1", "values": [{"measurement": "IC50", "result": 200, "unit": "nM"}]}
{"smiles": "COc1cc2c(Nc3c(F)cc(Br)cc3F)ncnc2cc1OCC1CCNCC1", "values": [{"measurement": "IC50", "result": 400, "unit": "nM"}]}
{"smiles": "COc1cc2c(Nc3ccc(Cl)cc3F)ncnc2cc1OCC1CCNCC1", "values": [{"measurement": "IC50", "result": 100, "unit": "nM"}]}
{"smiles": "COc1cc2c(Nc3ccc(Cl)cc3F)ncnc2cc1OC[C@@H]1CCCN(C)C1", "values": [{"measurement": "IC50", "result": 150, "unit": "nM"}]}
{"smiles": "COc1cc2c(Nc3c(F)cc(Cl)cc3F)ncnc2cc1OCC1CCNCC1", "values": [{"measurement": "IC50", "result": 600, "unit": "nM"}]}
{"smiles": "COc1cc2c(Nc3ccc(Cl)cc3F)ncnc2cc1OCCCN1CCN(C)CC1", "values": [{"measurement": "IC50", "result": 100, "unit": "nM"}]}
{"smiles": "COc1cc2c(Nc3ccc(Cl)cc3F)ncnc2cc1OC/C=C/CN1CCCC1", "values": [{"measurement": "IC50", "result": 80, "unit": "nM"}]}
{"smiles": "COc1cc2c(Nc3ccc(Br)cc3F)ncnc2cc1OCC1CCNCC1", "values": [{"measurement": "IC50", "result": 100, "unit": "nM"}]}
{"smiles": "COc1cc2c(Nc3ccc(C)cc3F)ncnc2cc1OCC1CCN(C)CC1", "values": [{"measurement": "IC50", "result": 400, "unit": "nM"}]}
{"smiles": "COc1cc2c(Nc3ccc(Cl)cc3F)ncnc2cc1OCCC1CCN(C)CC1", "values": [{"measurement": "IC50", "result": 200, "unit": "nM"}]}
